Measured values: ChEMBL document CHEMBL1201862, “PubChem BioAssay data set” (2004)
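Results reflect a 48-hour exposure of cells in 96-well plates to compound at five concentrations. Here, GI50 denotes the concentration required for 50% inhibition of growth.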 Calls of active or inactive are those of the source. Cut-off read from the data, not from the text of the source: active = GI50 up to about 1.1 µM and inactive = higher.

Tests used:
Test in all cases: NCI-60 cell line screen, 48 h
[1] = system: 786-0
[2] = system: A498
[3] = system: A549
[4] = system: CCRF-CEM
[5] = system: COLO 205
[6] = system: EKVX
[7] = system: HCC 2998
[8] = system: HL-60
[9] = system: HOP-62
[10] = system: M14
[11] = system: MCF7
[12] = system: MDA-N
[13] = system: Malme-3M
[14] = system: OVCAR-8
[15] = system: SK-MEL-2
[16] = system: SNB-75
[17] = system: SW-620
[18] = system: T47D
[19] = system: TK-10
[20] = system: UO-31

Measured: GI50

CCCCCCCCCCN(CCCCCCCCCC)C(=O)COc1c2cc(C(C)(C)C)cc1Cc1cc(C(C)(C)C)cc(c1OCC(=O)N(CCCCCCCCCC)CCCCCCCCCC)Cc1cc(C(C)(C)C)cc(c1OCC(=O)N(CCCCCCCCCC)CCCCCCCCCC)Cc1cc(C(C)(C)C)cc(c1OCC(=O)N(CCCCCCCCCC)CCCCCCCCCC)C2
inactive: [1] 11.2 µM | [2] 15.5 µM | [3] 16 µM | [4] 4.66 µM | [5] 15.8 µM | [6] 12.1 µM | [7] 8.85 µM | [8] 15 µM | [9] 16.1 µM | [10] 2.92 µM | [11] 3.59 µM | [12] 12.2 µM | [13] 15 µM | [14] 4.16 µM | [15] 7.93 µM | [16] 18.2 µM | [17] 1.93 µM | [18] 16.1 µM | [19] 18.8 µM | [20] 22 µM

O=C1CC(c2cccc([N+](=O)[O-])c2)C2(C(=O)NC(=S)NC2=O)C(c2cccc([N+](=O)[O-])c2)C1 (stereo not given)
inactive: [1] 34.8 µM | [2] > 100 µM | [3] 31 µM | [4] 27.6 µM | [5] 24.4 µM | [6] 20.4 µM | [7] 20.2 µM | [8] 40.3 µM | [9] 30.3 µM | [10] 21.9 µM | [11] 26.8 µM | [12] 43 µM | [13] 11.6 µM | [14] 21.2 µM | [15] 35.9 µM | [16] 43.4 µM | [17] 50.7 µM | [18] 81.3 µM | [19] 13.9 µM | [20] 47.2 µM
